Experimental findings from ChEMBL document CHEMBL6134930, “Discovery of AB801, a Potent and Selective Inhibitor of AXL Receptor Tyrosine Kinase for Use in Cancer Therapy” (J Med Chem, 2025) are described below.

pIC50, pKd: −log10 of the molar value. Activity calls are given as the source filed them. The calls are words filed in the database; no cut-off is given here. Some results are limits rather than exact numbers.

Series [1] can be described thus: Clearance in cynomolgus monkey at 0.5 mg/kg, iv measured up to 24 hrs by LC-MS/MS analysis. It is filed as ADME, organism-based, Macaca fascicularis. Conditions: in vivo.
In series [2] the target is T1, CYP3A4 (Homo sapiens, UniProt P08684). Briefly: Time dependent inhibition of CYP3A4 (unknown origin) using testosterone as substrate at 30 uM measured after 30 mins relative to control. It is filed as ADME. Conditions: probe testosterone, read-out: TDI.
T1 sequence (P08684 whole entry): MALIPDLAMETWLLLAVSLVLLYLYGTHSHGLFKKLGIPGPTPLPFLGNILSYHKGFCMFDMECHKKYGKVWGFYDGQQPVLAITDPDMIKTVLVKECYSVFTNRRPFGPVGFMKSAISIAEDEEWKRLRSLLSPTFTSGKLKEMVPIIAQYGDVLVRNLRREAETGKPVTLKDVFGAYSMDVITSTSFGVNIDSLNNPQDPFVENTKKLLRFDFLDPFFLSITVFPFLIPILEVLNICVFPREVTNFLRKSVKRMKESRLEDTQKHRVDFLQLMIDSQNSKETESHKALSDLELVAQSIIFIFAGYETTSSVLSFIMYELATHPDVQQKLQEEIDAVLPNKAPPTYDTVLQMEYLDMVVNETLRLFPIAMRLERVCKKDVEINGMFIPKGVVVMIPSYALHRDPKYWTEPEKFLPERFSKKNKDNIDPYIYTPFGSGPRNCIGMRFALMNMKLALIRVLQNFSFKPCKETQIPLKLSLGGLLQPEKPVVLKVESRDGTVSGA
In series [3] the target is T2, CYP2B6 (Homo sapiens, UniProt P20813).
T2 sequence (P20813 whole entry): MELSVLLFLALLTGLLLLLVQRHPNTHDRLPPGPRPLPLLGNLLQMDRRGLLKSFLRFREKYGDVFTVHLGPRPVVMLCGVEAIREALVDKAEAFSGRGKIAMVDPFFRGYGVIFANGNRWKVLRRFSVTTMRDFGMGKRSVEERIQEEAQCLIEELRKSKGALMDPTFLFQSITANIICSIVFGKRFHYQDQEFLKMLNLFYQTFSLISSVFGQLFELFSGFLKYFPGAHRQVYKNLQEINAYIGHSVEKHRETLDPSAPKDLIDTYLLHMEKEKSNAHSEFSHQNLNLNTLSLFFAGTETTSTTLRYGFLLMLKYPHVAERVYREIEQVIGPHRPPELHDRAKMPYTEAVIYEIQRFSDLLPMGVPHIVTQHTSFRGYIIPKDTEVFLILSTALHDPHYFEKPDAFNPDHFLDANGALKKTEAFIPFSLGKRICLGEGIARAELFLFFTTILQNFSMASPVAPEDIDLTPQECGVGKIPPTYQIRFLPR
In words: Time dependent inhibition of CYP2B6 (unknown origin) at 30 uM measured after 30 mins relative to control. It counts as ADME. Conditions: read-out: TDI.

Series [4] is described as follows: Clearance in Beagle dog at 0.5 mg/kg, iv measured up to 24 hrs by LC-MS/MS analysis. It is filed as ADME, organism-based, Canis lupus familiaris. Conditions: in vivo.
For series [5], the target named is CYP2C19 (Homo sapiens, UniProt P33261). In words: Time dependent inhibition of CYP2C19 (unknown origin) at 30 uM measured after 30 mins relative to control. It is filed as ADME. Conditions: read-out: TDI.
CYP2C19, sequence (P33261 whole entry): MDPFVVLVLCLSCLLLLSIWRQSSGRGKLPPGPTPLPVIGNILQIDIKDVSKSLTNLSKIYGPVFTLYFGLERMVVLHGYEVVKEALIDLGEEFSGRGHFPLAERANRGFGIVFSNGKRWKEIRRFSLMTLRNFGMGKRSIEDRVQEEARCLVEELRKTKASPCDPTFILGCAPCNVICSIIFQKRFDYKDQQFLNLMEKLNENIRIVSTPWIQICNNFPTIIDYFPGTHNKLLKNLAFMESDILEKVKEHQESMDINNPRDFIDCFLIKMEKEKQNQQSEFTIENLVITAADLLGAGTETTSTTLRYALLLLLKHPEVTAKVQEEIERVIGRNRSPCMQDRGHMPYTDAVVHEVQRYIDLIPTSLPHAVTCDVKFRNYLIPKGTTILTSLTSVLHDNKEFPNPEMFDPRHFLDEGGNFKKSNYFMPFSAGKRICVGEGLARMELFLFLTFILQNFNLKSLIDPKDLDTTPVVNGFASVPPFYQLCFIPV
In series [6] the target is hERG (KCNH2) (Homo sapiens, UniProt Q12809). In words: Inhibition of hERG at 10 uM by high throughput cell based patch clamp assay. It counts as toxicity. (In general: Block of hERG is tested as a sign of cardiac risk.)
hERG (KCNH2), sequence (Q12809 whole entry): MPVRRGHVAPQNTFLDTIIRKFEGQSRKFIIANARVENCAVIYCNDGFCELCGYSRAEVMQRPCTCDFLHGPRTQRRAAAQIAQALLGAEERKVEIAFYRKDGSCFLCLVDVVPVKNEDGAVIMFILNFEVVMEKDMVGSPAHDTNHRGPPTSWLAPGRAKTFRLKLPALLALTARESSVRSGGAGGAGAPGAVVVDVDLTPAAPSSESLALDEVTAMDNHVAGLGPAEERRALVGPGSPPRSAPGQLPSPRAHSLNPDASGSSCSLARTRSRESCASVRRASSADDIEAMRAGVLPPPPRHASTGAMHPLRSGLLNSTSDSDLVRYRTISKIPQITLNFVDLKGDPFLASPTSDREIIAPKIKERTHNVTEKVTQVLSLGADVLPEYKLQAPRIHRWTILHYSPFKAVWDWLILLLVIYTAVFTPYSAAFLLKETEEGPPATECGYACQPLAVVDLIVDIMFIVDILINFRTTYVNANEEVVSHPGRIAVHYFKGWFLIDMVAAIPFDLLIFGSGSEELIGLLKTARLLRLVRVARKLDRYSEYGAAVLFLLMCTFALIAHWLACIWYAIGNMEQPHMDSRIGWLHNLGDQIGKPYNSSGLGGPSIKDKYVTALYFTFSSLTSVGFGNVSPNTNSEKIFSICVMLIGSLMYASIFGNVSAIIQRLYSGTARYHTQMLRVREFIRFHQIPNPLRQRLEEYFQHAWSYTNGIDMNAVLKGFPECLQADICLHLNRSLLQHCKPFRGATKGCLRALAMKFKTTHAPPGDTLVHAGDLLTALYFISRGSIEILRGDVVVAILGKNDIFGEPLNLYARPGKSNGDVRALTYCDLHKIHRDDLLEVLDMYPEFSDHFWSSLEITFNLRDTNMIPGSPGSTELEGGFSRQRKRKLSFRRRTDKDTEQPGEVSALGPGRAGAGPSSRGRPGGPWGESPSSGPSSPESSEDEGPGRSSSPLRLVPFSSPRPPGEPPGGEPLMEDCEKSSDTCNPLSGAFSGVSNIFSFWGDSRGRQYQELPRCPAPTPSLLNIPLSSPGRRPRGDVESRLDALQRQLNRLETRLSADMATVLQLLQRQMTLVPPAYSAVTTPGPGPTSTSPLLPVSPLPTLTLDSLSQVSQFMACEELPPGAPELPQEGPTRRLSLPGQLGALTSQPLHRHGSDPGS
Series [7] can be described thus: Metabolic stability in rat hepatocytes assessed as intrinsic clearance measured per 10^6 cells. Conditions: read-out: CLH. It counts as ADME, cell-based, Hepatocyte.
Series [8] concerns the target T3, CYP2C8 (Homo sapiens, UniProt P10632).
T3 sequence (P10632 whole entry): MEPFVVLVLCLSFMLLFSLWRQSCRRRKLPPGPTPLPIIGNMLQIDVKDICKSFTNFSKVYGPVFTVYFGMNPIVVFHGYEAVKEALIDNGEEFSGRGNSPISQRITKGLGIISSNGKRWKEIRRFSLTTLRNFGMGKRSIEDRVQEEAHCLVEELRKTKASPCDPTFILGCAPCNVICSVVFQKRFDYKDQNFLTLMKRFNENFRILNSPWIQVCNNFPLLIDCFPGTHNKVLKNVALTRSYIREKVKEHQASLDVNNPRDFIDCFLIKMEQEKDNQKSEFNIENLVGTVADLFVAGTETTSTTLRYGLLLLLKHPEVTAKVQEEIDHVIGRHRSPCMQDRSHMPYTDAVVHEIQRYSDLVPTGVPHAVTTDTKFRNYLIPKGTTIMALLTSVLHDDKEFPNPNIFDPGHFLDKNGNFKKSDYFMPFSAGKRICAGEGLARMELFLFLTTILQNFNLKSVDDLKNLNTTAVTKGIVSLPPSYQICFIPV
Briefly: Time dependent inhibition of CYP2C8 (unknown origin) at 30 uM measured after 30 mins relative to control. It is filed as ADME. Conditions: read-out: TDI.

Series [9] is described as follows: AUCinf in Sprague-Dawley rat at 2 mg/kg, po measured up to 8 hrs by LC-MS/MS analysis. It counts as ADME, organism-based. Conditions: in vivo.
The target of series [10] is T1, CYP3A4. In words: Time dependent inhibition of CYP3A4 (unknown origin) using midazolam as substrate at 30 uM measured after 30 mins relative to control. It is filed as ADME. Conditions: probe midazolam, read-out: TDI.
Series [11] addresses T4, Tyrosine-protein kinase receptor UFO (Homo sapiens, UniProt P30530).
T4 sequence (P30530 whole entry): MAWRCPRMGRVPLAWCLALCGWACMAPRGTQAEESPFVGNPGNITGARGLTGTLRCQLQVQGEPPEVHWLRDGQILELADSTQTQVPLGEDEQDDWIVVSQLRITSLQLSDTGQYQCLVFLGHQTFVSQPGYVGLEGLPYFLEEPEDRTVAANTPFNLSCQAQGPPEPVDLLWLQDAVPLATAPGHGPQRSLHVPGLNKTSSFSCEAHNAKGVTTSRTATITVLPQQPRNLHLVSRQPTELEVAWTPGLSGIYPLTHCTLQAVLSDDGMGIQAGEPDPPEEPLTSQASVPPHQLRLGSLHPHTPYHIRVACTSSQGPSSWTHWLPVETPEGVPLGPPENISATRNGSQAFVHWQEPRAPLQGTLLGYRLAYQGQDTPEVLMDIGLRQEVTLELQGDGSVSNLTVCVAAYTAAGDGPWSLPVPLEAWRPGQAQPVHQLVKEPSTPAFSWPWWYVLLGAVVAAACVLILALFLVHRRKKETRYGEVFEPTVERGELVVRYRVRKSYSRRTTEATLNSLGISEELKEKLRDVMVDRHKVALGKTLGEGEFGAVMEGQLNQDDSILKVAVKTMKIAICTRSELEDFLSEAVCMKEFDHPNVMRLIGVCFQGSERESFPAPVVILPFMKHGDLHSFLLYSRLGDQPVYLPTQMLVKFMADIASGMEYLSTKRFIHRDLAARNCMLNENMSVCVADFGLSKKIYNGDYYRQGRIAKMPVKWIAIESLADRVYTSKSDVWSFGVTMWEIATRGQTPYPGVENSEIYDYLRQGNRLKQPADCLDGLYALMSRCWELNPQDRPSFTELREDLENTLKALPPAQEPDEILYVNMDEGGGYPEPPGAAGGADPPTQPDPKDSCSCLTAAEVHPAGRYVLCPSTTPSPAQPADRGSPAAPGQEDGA
Briefly: Inhibition of autophosphorylation AXL (unknown origin) expressed in HEK293 cells assessed as NanoLuc activity associated with phosphorylated proteins measured after 1 hr incubation by intracellular pAXL-ELISA. It counts as cell-based. (In general: ELISA stands for enzyme-linked immunosorbent assay.)

Series [12] can be described thus: Clearance in CD-1 mouse at 0.5 mg/kg, iv measured up to 24 hrs by LC-MS/MS analysis. Conditions: in vivo. It is filed as ADME, organism-based.
Series [13] addresses T5, CYP1A2 (Homo sapiens, UniProt P05177).
T5 sequence (P05177 whole entry): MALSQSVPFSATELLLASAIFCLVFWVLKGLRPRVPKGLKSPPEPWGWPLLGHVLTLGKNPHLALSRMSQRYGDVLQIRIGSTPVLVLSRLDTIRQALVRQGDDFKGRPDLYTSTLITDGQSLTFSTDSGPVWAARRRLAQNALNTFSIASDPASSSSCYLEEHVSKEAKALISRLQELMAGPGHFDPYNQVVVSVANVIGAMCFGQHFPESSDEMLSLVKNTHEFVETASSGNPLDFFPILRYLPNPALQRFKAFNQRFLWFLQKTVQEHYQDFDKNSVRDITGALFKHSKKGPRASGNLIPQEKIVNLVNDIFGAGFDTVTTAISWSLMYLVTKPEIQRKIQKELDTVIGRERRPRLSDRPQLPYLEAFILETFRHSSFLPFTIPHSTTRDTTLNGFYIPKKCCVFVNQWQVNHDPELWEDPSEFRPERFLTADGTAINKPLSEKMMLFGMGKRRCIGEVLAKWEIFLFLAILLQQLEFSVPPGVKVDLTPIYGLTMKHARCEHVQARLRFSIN
Briefly: Time dependent inhibition of CYP1A2 (unknown origin) at 30 uM measured after 30 mins relative to control. It counts as ADME. Conditions: read-out: TDI.

Series [14] addresses T4, Tyrosine-protein kinase receptor UFO. In words: Inhibition of human AXL measured after 150 mins by ATP-competitive HTRF based biochemical assay.
The nature of series [15]: Clearance in Sprague-Dawley rat at 0.5 mg/kg, iv measured up to 24 hrs by LC-MS/MS analysis. It is filed as ADME, organism-based. Conditions: in vivo.
In series [16] the target is CYP2C9 (Homo sapiens, UniProt P11712). Briefly: Time dependent inhibition of CYP2C9 (unknown origin) at 30 uM measured after 30 mins relative to control. It is filed as ADME. Conditions: read-out: TDI.
CYP2C9, sequence (P11712 whole entry): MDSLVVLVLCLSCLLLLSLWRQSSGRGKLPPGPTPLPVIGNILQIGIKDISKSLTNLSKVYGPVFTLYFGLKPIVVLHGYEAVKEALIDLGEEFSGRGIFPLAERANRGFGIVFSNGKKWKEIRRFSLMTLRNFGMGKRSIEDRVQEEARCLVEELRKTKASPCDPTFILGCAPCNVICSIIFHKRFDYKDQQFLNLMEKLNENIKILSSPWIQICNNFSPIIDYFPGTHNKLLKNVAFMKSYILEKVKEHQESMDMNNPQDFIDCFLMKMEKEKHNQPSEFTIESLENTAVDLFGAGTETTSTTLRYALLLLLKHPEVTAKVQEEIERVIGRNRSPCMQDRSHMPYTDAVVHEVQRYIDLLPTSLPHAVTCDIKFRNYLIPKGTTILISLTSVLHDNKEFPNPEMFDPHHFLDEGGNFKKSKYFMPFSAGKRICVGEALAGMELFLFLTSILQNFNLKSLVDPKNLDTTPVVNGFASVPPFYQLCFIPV
Series [17] in a line: Metabolic stability in human hepatocytes assessed as intrinsic clearance measured per 10^6 cells. It is filed as ADME, cell-based, Hepatocyte. Conditions: read-out: CLH.
Series [18] in a line: Efflux ratio in human Caco-2 cells. It is filed as ADME, cell-based. In general terms: Caco-2 cells form a polarised layer with tight junctions and transporters.
The target of series [19] is CYP2D6 (Homo sapiens, UniProt P10635). In words: Time dependent inhibition of CYP2D6 (unknown origin) at 30 uM measured after 30 mins relative to control. Conditions: read-out: TDI. It counts as ADME.
CYP2D6, sequence (P10635 whole entry): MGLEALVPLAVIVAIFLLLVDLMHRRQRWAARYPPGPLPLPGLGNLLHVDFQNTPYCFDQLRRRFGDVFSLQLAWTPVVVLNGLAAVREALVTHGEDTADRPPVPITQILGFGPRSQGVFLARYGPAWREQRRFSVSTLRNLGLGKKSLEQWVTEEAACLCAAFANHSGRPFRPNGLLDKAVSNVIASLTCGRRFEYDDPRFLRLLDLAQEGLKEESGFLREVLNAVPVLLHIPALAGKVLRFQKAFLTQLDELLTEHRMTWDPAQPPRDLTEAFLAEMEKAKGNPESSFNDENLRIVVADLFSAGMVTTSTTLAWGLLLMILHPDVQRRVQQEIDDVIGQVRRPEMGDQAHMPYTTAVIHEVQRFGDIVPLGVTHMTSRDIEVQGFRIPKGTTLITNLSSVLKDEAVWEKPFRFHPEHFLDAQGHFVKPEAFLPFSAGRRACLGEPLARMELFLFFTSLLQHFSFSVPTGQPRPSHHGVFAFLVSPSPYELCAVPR
Series [20] can be described thus: Apparent permeability of compound from apical to basolateral side in human Caco-2 cells. It counts as ADME, cell-based. Conditions: read-out: permeability.
Series [21] deals with 786-0. Briefly: Anti-tumor activity against human 786-0 cells xenografted in mouse model assessed as tumor growth inhibition at 40 mg/kg, po once daily for 15 days. It counts as functional, organism-based. Conditions: time 15.0 day.
Series [22] concerns the target T4, Tyrosine-protein kinase receptor UFO. Briefly: Binding affinity to AXL (unknown origin) expressed in HEK293 cells transfected with Nano-Luc fusion vector assessed as dissociation constant by measuring decrease in BRET signal preincubated for 1 hr followed by K-5 NanoBRET tracer addition incubated for 2 hrs. It is filed as cell-based.

Usually clearance stands for the volume of plasma or blood freed of the substance per unit of time. For orientation: AUC(0-inf) means the area under the concentration-time curve extrapolated to infinity. For orientation: pIC50 means −log10 of the IC50, conventionally taken in molar units. Usually efflux ratio stands for a quotient of directional permeabilities that is used to spot active efflux. For the compound `Cc1cccnc1-c1ccc(-c2n[nH]c3ncc(-c4ccc5c(c4)CC[C@@H](N4C6COCC4C6)CC5)cc23)cc1`, the clearance in series [1] is 6.83 mL/min/kg; in series [4], 25 mL/min/kg; in [12], 5.33 mL/min/kg; in series [15], 2.67 mL/min/kg. In addition, the inhibition at 0.5 h, 30 µM in series [2] is 50%; in series [3] it was 22%; in series [5], 23%; in [8] it was 14%; in series [10], 31%; in series [13], 24%. In addition, the inhibition at 0.5 h, 30 µM in series [16] came out at 0%; in series [19] it was 2.4%. Further, the inhibition at 10 µM in series [6] stood at 23%. Also, the hepatocyte CLint is 2.7 µL/min/1e6 cells in [7] and less than 2.7 µL/min/1e6 cells in series [17]. In [9], the AUC(0-inf) is 3000 ng·h/mL. Moreover, the values for the pIC50 in series [11] and in series [14] were 7.19 and 8.62, respectively. Also, in series [18], the efflux ratio stood at 1. Also, the Papp A→B in series [20] amounted to 0.96 ×10⁻⁶ cm/s.

On to `CCN(CC)CCNC(=O)c1c(C)[nH]c(/C=C2\C(=O)Nc3ccc(F)cc32)c1C`, for which, in series [21], the outcome was inactive.

On to `Cc1cccnc1-c1ccc(-c2c[nH]c3ncc(-c4ccc5c(c4)CC[C@@H](N4C6COCC4C6)CC5)cc23)cc1`, for which the clearance in series [1] is 4.67 mL/min/kg; in [4], 11.8 mL/min/kg; in series [12] it was 3.33 mL/min/kg; in series [15] it was 2.67 mL/min/kg. Besides, the inhibition at 0.5 h, 30 µM in series [2] stood at 69%; in series [3] it was 14%; in series [5], 12%; in [8], 0%; in series [10], 58%; in series [13], 0%. For the same compound, the inhibition at 0.5 h, 30 µM came to 13% in [16] and 14% in series [19]. Further, the inhibition at 10 µM in series [6] stood at 40%. For the same compound, the hepatocyte CLint in series [7] was 5.4 µL/min/1e6 cells; in series [17], less than 2.7 µL/min/1e6 cells. The AUC(0-inf) in series [9] stood at 4800 ng·h/mL. Moreover, the pIC50 in [11] was 7.17; in series [14], 9.14. Also, the efflux ratio in series [18] is 0.9. Besides, the Papp A→B in [20] came out at 0.58 ×10⁻⁶ cm/s.

What is called pKd is −log10 of the Kd, conventionally taken in molar units. Take `O=C1OCCN1c1ccc(-c2n[nH]c3ncc(-c4ccc5c(c4)CC[C@@H](N4C6COCC4C6)CC5)cc23)cc1`: in series [6], the inhibition at 10 µM is 44%. The values for the hepatocyte CLint in series [7] and in series [17] were 4.3 µL/min/1e6 cells and less than 2.7 µL/min/1e6 cells, respectively. The AUC(0-inf) in series [9] amounted to 1500 ng·h/mL. Besides, the figures for the negative-log IC50 (pIC50) in [11] and in series [14] were 6.41 and 7.82, respectively. The pKd in [22] is 7.57. Further, the clearance in [15] is 8.17 mL/min/kg. In addition, the efflux ratio in series [18] was determined as 3.3. Also, the Papp A→B in [20] worked out at 8 ×10⁻⁶ cm/s.
